We go through 14 compounds from patent US5256782A, “Thienopyridine derivatives which are intermediates” (Takeda Chemical Industries, Ltd., priority 1990, dated 1993).

Molecules are shown by their SMILES.

Test [1] concerns the target T1, acyl-CoA: cholesterol acyltransferase (ACAT) (Rattus norvegicus, UniProt Q7TQM4).
T1 construct: microsome fraction of the tunica mucosa intestini tenuis; from tissue; host or cells: microsome fraction of small-intestinal mucosa, Sprague-Dawley male rat (six weeks old, fasted 20 hours)
T1 sequence (Q7TQM4 1-524): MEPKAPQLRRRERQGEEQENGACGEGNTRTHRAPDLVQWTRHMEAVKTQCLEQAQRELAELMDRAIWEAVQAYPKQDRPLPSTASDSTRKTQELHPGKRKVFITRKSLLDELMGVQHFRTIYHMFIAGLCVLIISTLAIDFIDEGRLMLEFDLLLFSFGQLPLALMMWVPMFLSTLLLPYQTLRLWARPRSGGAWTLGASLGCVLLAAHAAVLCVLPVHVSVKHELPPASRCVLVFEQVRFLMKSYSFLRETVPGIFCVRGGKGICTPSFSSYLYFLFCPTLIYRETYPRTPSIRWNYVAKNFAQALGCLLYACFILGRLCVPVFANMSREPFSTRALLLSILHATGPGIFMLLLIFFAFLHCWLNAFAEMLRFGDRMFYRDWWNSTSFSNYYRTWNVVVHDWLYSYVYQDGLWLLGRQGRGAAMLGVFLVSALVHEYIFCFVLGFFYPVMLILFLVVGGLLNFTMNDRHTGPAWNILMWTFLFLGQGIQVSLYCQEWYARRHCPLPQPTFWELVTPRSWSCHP
The test can be described thus: ACAT inhibitory activity (labeled cholesterol ester formation from [1-14C]oleoyl-CoA and endogenous cholesterol; microsome fraction of rat tunica mucosa intestini tenuis). Conditions: 10^-6 M; read-out: ACAT inhibitory rate (labeled cholesterol ester formation inhibitory rate). It is filed as biochemical, Spregue-Dawley male rat. As for the experimental part: An enzyme specimen ACAT was prepared from a microsome fraction of the tunica mucosa intestini tenuis of Spregue-Dawley male rat (six week old) which had been subjected to fasting for 20 hours according to the method described in Journal of Lipid Research, 24, 1127 (1982).
ACAT activity was calculated by measuring an amount of a labeled cholesterol ester formed from [1-^14 C]oleoyl-CoA and endogenous cholesterol according to the process of Helgerud et al. [Journal of Lipid Research, 22, 271 (1981)].
ACTA inhibitory activity of compounds tested are shown in Table 1 by a labeled cholesterol ester formation inhibitory rate (%) obtained by addition of the test compounds in an amount of 10^-6 M.

For test [2], the target named is T1, acyl-CoA: cholesterol acyltransferase (ACAT). The test is described as above. It is filed as biochemical, Spregue-Dawley male rat. Conditions: 0.5 × 10^-6 M; read-out: ACAT inhibitory rate (labeled cholesterol ester formation inhibitory rate).

`CCc1cc2c(-c3ccccc3Cl)c(NC(=O)C=Cc3cc(OC)c(OC(C)=O)c(OC)c3)cnc2s1` [Example 2, 5-(4-Acetoxy-3,5-dimethoxycinnamoylamino)-4-(2-chlorophenyl)-2-ethylthieno[2,3-b]pyridine]: in test [1], the inhibition at 1 µM worked out at 74.3%.

With `Cc1cc2c(-c3ccccc3Cl)c(NC(=O)Nc3ccc(F)cc3F)cnc2s1` [Example 10, N-[4-(2-chlorophenyl)-2-methylthieno[2,3-b]pyridin-5-yl]-N'-(2,4-difluorophenyl)urea], the inhibition at 1 µM in test [1] was 95.1%. On the same count and under the same terms, the figure for `CCc1cc2c(-c3ccccc3Cl)c(NC(=O)Nc3ccc(F)cc3F)c(=O)n(C)c2s1` [Example 3, N-[4-(2-chlorophenyl)-6,7-dihydro-2-ethyl-7-methyl-6-oxothieno[2,3-b]pyridin-5-yl]-N'-(2,4-difluorophenyl)urea] is 99.6%; for `CCc1cc2c(-c3ccccc3OC)c(NC(=O)Nc3cc(C)c(OC(C)=O)c(C)c3)cnc2s1` [Example 13, N-(4-acetoxy-3,5-dimethylphenyl)-N'-[2-ethyl-4-(2-methoxyphenyl)thieno[2,3-b]pyridin-5-yl]urea] it is 97.5%. Consider `CCc1cc2c(-c3ccccc3OC)c(NC(=O)Nc3cc(OC)c(OC(C)=O)c(OC)c3)cnc2s1` [Example 14, N-(4-acetoxy-3,5-dimethoxyphenyl)-N'-[2-ethyl-4-(2-methoxyphenyl)thieno[2,3-b]pyridin-5-yl]urea], for which the inhibition at 1 µM in test [1] worked out at 91.9%.

Take `O=C(Nc1ccc(F)cc1F)Nc1cnc2sc3c(c2c1-c1ccccc1Cl)CCCC3` [Example 12, N-[4-(2-chlorophenyl)-5,6,7,8-tetrahydro[1]-benzothieno[2,3-b]pyridin-3-yl]-N'-(2,4-difluorophenyl)urea]: the inhibition at 0.5 µM in test [2] is 82.3%. `O=C(Cc1ccc(F)cc1F)Nc1cnc2sc3c(c2c1-c1ccccc1Cl)CCC3` [Example 8, 4-(2-chlorophenyl)-3-(2,4-difluorophenylacetylamino)-6,7-dihydro-5H-cyclopenta-[1',2':5,4]thieno-[2,3-b]pyridine]: in test [1], the inhibition at 1 µM stood at 94.4%.

As for `Cc1ccccc1-c1c(NC(=O)Nc2ccc(F)cc2F)cnc2sccc12` [Example 9, N-(2,4-difluorophenyl)-N'-[4-(2-methylphenyl)-thieno[2,3-b]pyridin-5-yl]urea], the inhibition at 1 µM in test [1] was 60.2%.

For the compound `Cc1ccccc1-c1c(NC(=O)Nc2ccc(F)cc2F)cnc2sc(Cl)cc12` [Example 11, N-[2-chloro-4-(2-methylphenyl)thieno[2,3-b]pyridin-5-yl]-N'-[2,4-difluorophenyl)urea], the inhibition at 1 µM in test [1] stood at 94.5%.

For `CCc1cc2c(-c3ccccc3Cl)c(NC(=O)Nc3ccc(F)cc3F)cnc2s1` [Example 1, N-[4-(2-chlorophenyl)-2-ethylthieno[2,3-b]pyridin-5-yl]-N'-(2,4-difluorophenyl)urea], the inhibition at 1 µM in test [1] was found to be 98.7%. For the compound `Cc1sc2ncc(NC(=O)Nc3ccc(F)cc3F)c(-c3ccccc3Cl)c2c1C` [Example 5, N-[4-(2-chlorophenyl)-2,3-dimethylthieno[2,3-b]pyridin-5-yl]-N'-(2,4-difluorophenyl)urea], the inhibition at 1 µM in test [1] stood at 93.9%. The same measure, in the same setting: the result for `O=C(Nc1cnc2sc3c(c2c1-c1ccccc1Cl)CCC3)c1ccc(F)cc1F` [Example 7, 4-(2-chlorophenyl)-3-(2,4-difluorobenzoylamino)-6,7-dihydro-5H-cyclopenta[1',2':5,4]thieno[2,3-b]pyridine] reads 34.4%. The same measure, in the same setting: the result for `O=C(Nc1ccc(F)cc1F)Nc1cnc2sc3c(c2c1-c1ccccc1Cl)CCC3` [Example 6, N-[4-(2-chlorophenyl)-6,7-dihydro-5H-cyclopenta[1',2':5,4]thieno[2,3-b]pyridin-3-yl]-N'-(2,4-difluorophenyl)urea] reads 96.3%; that for `CCc1cc2c(-c3ccccc3Cl)c(NC(=O)Nc3ccc(Cl)cc3)cnc2s1` [Example 4, N-(4-chlorophenyl)-N'-[4-(2-chlorophenyl)-2-ethylthieno[2,3-b]pyridin-5-yl]urea], 93.6%.
